Reference: ChEMBL document CHEMBL5338805, “Discovery of the First Subnanomolar PPARα/δ Dual Agonist for the Treatment of Cholestatic Liver Diseases” (J Med Chem, 2023)
Activity calls are given as the source filed them.

What was measured:
[1] = molecular target: Retinoic acid receptor gamma (Homo sapiens) (UniProt P13631); experiment: Agonist activity at RARgamma (unknown origin) transfected in african green monkey COS7 cells assessed transactivation incubated at 1 uM for 16 hrs by luciferase assay; assay type: cell-based
[2] = molecular target: Retinoic acid receptor RXR-beta (Homo sapiens) (UniProt P28702); experiment: Agonist activity at RXRbeta (unknown origin) transfected in african green monkey COS7 cells assessed transactivation incubated at 1 uM for 16 hrs by luciferase assay; assay type: cell-based
[3] = molecular target: Retinoic acid receptor RXR-gamma (Homo sapiens) (UniProt P48443); experiment: Agonist activity at RXRgamma (unknown origin) transfected in african green monkey COS7 cells assessed transactivation incubated at 1 uM for 16 hrs by luciferase assay; assay type: cell-based
[4] = molecular target: Nuclear receptor ROR-alpha (Homo sapiens) (UniProt P35398); experiment: Agonist activity at RORalpha (unknown origin) transfected in african green monkey COS7 cells assessed transactivation incubated at 1 uM for 16 hrs by luciferase assay; assay type: cell-based
[5] = molecular target: Nuclear receptor ROR-beta (Homo sapiens) (UniProt Q92753); experiment: Agonist activity at RORbeta (unknown origin) transfected in african green monkey COS7 cells assessed transactivation incubated at 1 uM for 16 hrs by luciferase assay; assay type: cell-based
[6] = molecular target: Nuclear receptor ROR-gamma (Homo sapiens) (UniProt P51449); experiment: Agonist activity at RORgamma (unknown origin) transfected in african green monkey COS7 cells assessed transactivation incubated at 1 uM for 16 hrs by luciferase assay; assay type: cell-based
[7] = molecular target: Oxysterols receptor LXR-alpha (Homo sapiens) (UniProt Q13133); experiment: Agonist activity at LXRalpha (unknown origin) transfected in african green monkey COS7 cells assessed transactivation incubated at 1 uM for 16 hrs by luciferase assay; assay type: cell-based
[8] = Stability in human liver microsome assessed as half life at 1 uM by LC/MS-8050 analysis; assay type: ADME; details: liver microsomes
[9] = AUC in fasted Sprague-Dawley rat at 2 mg/kg, IV measured at 0.083 to 24 hrs by LC-MS/MS analysis; assay type: ADME, organism-based; set-up: dose 2 mg/kg, time upper 24 hrs, time lower 0.083 hrs, route iv; details: in vivo
[10] = AUC in fasted Sprague-Dawley rat at 10 mg/kg, po measured at 0.083 to 24 hrs by LC-MS/MS analysis; assay type: ADME, organism-based; set-up: time lower 0.083 hrs, dose 10 mg/kg, time upper 24 hrs, route po; details: in vivo
[11] = Oral bioavailability in fasted Sprague-Dawley rat at 10 mg/kg measured at 0.083 to 24 hrs by LC-MS/MS analysis; assay type: ADME, organism-based; details: in vivo, time 0.083-24 hrs
COS-7 = experiment: Cytotoxicity against african green monkey COS7 cells incubated upto 100 uM for 24 hrs by CCK8 assay; assay type: toxicity, cell-based; details: chlorocebus aethiops, cos-7, 24 h
HepG2 = experiment: Cytotoxicity against human HepG2 cells incubated upto 100 uM for 24 hrs by CCK8 assay; assay type: toxicity, cell-based; details: hepg2, 24 h
[12] = Down-streaming of Oatp1 gene expression in C57BL/6JNifdc mouse liver assessed as hepatic resorption of bile acid administered at 0.03 to 0.1 mg/kg, po for 3 days measured after 6 hrs of last administration by real-time PCR analysis; assay type: ADME, organism-based; details: in vivo, 78 h, dose 0.03-0.1 mg/kg, time 3.25 day
[13] = Upregulation of Mrp3 gene expression in C57BL/6JNifdc mouse liver assessed as increased efflux of bile acid administered at 0.03 to 0.1 mg/kg, po for 3 days measured after 6 hrs of last administration by real-time PCR analysis; assay type: ADME, organism-based; details: in vivo, 78 h, dose 0.03-0.1 mg/kg, time 3.25 day
[14] = Upregulation of Mrp4 gene expression in C57BL/6JNifdc mouse liver assessed as increased efflux of bile acid administered at 0.03 to 0.1 mg/kg, po for 3 days measured after 6 hrs of last administration by real-time PCR analysis; assay type: ADME, organism-based; details: in vivo, 78 h, dose 0.03-0.1 mg/kg, time 3.25 day
[15] = Anti-cholestatic activity in ANIT-induced C57BL/6Nifdc mouse model assessed as decrease in serum total bilirubin level at 0.03 to 0.1 mg/kg, po upto 42 hrs measured after 48 hrs; assay type: ADME, organism-based; details: in vivo, 90 h, dose 0.03-0.1 mg/kg
[16] = Anti-cholestatic activity in ANIT-induced C57BL/6Nifdc mouse model assessed as decrease in serum TBA at 0.03 to 0.1 mg/kg, po upto 42 hrs measured after 48 hrs; assay type: ADME, organism-based; details: in vivo, 90 h, dose 0.03-0.1 mg/kg
[17] = Anti-cholestatic activity in ANIT-induced C57BL/6Nifdc mouse model assessed as decrease in liver TCA at 0.03 to 0.1 mg/kg, po upto 42 hrs measured after 48 hrs; assay type: ADME, organism-based; details: in vivo, 90 h, dose 0.03-0.1 mg/kg
[18] = Anti-cholestatic activity in ANIT-induced C57BL/6Nifdc mouse model assessed as decrease in liver TCDCA at 0.03 to 0.1 mg/kg, po upto 42 hrs measured after 48 hrs; assay type: ADME, organism-based; details: in vivo, 90 h, dose 0.03-0.1 mg/kg
[19] = Anti-cholestatic activity in ANIT-induced C57BL/6Nifdc mouse model assessed as downregulation of proinflammatory Tnf gene at 0.03 to 0.1 mg/kg, po upto 42 hrs measured after 48 hrs; assay type: ADME, organism-based; details: in vivo, 90 h, dose 0.03-0.1 mg/kg
[20] = Anti-cholestatic activity in ANIT-induced C57BL/6Nifdc mouse model assessed as downregulation of proinflammatory Il1b gene at 0.03 to 0.1 mg/kg, po upto 42 hrs measured after 48 hrs; assay type: ADME, organism-based; details: in vivo, 90 h, dose 0.03-0.1 mg/kg
[21] = Anti-cholestatic activity in ANIT-induced C57BL/6Nifdc mouse model assessed as downregulation of proinflammatory Il6 gene at 0.03 to 0.1 mg/kg, po upto 42 hrs measured after 48 hrs; assay type: ADME, organism-based; details: in vivo, 90 h, dose 0.03-0.1 mg/kg
[22] = Anti-cholestatic activity in ANIT-induced C57BL/6Nifdc mouse model assessed as downregulation of proinflammatory Nos2 gene at 0.03 to 0.1 mg/kg, po upto 42 hrs measured after 48 hrs; assay type: ADME, organism-based; details: in vivo, 90 h, dose 0.03-0.1 mg/kg
[23] = Anti-cholestatic activity in ANIT-induced C57BL/6Nifdc mouse model assessed as downregulation of NF-kappaB signalling pathway at 0.03 to 0.1 mg/kg, po upto 42 hrs measured after 48 hrs; assay type: ADME, organism-based; details: in vivo, 90 h, dose 0.03-0.1 mg/kg
[24] = Anti-cholestatic activity in ANIT-induced C57BL/6Nifdc mouse model assessed as decrease in phosphorylated p65 level at 0.03 to 0.1 mg/kg, po upto 42 hrs measured after 48 hrs by Western blot analysis; assay type: ADME, organism-based; details: in vivo, 90 h, dose 0.03-0.1 mg/kg
[25] = Anti-cholestatic activity in ANIT-induced C57BL/6Nifdc mouse model assessed as decrease in liver UCA at 0.03 to 0.1 mg/kg, po upto 42 hrs measured after 48 hrs; assay type: ADME, organism-based; details: in vivo, 90 h, dose 0.03-0.1 mg/kg
[26] = Anti-cholestatic activity in ANIT-induced C57BL/6Nifdc mouse model assessed as decrease in liver TUDCA at 0.03 to 0.1 mg/kg, po upto 42 hrs measured after 48 hrs; assay type: ADME, organism-based; details: in vivo, 90 h, dose 0.03-0.1 mg/kg
[27] = Anti-fibrosis activity in Ccl4-induced C57BL/6Nifdc mouse model assessed as reversal of increased alpha-SMA administered orally for 3 weeks by Western blot analysis; assay type: ADME; details: in vivo, po, 504 h, dose 0.03-0.1 mg/kg
[28] = Down-streaming of Oatp1 gene expression in C57BL/6JNifdc mouse liver assessed as hepatic resorption of bile acid administered at 0.03 mg/kg, po for 3 days measured after 6 hrs of last administration by real-time PCR analysis; assay type: ADME, organism-based; details: in vivo, 78 h
[29] = Down-streaming of NTCP gene expression in C57BL/6JNifdc mouse liver assessed as hepatic resorption of bile acid administered at 0.03 mg/kg, po for 3 days measured after 6 hrs of last administration by real-time PCR analysis; assay type: ADME, organism-based; details: in vivo, 78 h

Chain of Retinoic acid receptor gamma (Homo sapiens) (P13631 whole entry): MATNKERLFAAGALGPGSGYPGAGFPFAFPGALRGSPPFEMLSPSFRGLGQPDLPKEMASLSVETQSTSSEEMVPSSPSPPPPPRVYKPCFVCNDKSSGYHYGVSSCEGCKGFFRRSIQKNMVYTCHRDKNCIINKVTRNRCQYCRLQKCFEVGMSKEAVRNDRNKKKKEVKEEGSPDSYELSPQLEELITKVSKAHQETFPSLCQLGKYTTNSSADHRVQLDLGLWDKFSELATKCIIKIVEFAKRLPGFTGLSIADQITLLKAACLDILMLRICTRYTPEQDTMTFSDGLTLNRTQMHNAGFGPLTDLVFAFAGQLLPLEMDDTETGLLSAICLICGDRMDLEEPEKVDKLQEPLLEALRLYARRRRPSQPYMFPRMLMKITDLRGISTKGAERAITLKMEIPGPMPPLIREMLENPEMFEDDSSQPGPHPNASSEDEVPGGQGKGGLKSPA
Chain of Retinoic acid receptor RXR-beta (Homo sapiens) (P28702 whole entry): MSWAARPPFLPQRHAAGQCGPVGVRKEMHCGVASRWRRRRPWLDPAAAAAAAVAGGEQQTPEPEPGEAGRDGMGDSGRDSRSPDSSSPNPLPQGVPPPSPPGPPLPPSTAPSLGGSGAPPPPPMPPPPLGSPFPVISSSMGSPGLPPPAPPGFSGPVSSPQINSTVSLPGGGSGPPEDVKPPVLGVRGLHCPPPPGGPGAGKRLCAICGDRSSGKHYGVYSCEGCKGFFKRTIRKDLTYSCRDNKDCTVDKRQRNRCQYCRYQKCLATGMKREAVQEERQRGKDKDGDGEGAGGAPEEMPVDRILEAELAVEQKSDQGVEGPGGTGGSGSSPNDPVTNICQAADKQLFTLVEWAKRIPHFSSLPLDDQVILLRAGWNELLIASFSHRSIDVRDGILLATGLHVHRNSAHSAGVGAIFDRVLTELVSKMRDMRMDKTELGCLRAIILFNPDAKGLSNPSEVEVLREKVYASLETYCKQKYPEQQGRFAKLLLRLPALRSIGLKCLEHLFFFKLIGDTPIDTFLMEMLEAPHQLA
Chain of Retinoic acid receptor RXR-gamma (Homo sapiens) (P48443 whole entry): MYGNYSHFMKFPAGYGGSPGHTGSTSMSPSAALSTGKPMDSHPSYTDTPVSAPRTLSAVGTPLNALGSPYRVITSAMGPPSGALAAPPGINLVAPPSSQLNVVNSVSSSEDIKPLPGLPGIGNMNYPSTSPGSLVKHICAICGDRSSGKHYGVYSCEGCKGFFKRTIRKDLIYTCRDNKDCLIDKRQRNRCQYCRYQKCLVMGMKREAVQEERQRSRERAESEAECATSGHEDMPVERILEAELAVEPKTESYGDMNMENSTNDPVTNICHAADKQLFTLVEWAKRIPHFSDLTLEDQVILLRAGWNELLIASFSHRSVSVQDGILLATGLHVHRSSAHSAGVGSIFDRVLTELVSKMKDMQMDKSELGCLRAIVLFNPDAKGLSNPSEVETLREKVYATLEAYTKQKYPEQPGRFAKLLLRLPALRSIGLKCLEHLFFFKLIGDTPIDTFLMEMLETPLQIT
Chain of Nuclear receptor ROR-gamma (Homo sapiens) (P51449 whole entry): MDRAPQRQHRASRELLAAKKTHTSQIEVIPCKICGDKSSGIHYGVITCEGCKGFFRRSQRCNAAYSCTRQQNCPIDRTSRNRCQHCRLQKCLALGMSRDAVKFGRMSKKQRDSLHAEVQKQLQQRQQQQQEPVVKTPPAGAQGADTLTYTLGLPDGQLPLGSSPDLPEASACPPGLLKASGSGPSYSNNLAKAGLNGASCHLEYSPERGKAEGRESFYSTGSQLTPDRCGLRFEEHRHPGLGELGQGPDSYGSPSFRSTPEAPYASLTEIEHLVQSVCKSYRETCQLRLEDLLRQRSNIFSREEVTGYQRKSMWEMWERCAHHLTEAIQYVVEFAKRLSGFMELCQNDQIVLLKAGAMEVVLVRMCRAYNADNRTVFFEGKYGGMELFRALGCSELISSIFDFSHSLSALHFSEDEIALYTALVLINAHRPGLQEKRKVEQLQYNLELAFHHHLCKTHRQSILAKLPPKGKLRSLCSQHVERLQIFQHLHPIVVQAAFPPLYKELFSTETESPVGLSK
Chain of Oxysterols receptor LXR-alpha (Homo sapiens) (Q13133 whole entry): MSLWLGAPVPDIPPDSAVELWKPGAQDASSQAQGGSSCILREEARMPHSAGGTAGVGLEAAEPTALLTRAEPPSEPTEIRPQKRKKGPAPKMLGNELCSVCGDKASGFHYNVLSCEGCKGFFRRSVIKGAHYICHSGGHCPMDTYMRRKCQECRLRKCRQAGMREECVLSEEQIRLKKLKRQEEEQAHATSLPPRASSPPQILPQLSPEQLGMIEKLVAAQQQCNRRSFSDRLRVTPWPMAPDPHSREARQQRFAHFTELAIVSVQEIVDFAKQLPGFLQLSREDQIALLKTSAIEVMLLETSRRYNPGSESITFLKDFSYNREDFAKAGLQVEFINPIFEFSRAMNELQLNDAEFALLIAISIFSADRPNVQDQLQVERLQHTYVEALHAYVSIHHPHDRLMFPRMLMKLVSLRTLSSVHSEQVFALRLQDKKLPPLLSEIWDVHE
Chain of Nuclear receptor ROR-beta (Homo sapiens) (Q92753 whole entry): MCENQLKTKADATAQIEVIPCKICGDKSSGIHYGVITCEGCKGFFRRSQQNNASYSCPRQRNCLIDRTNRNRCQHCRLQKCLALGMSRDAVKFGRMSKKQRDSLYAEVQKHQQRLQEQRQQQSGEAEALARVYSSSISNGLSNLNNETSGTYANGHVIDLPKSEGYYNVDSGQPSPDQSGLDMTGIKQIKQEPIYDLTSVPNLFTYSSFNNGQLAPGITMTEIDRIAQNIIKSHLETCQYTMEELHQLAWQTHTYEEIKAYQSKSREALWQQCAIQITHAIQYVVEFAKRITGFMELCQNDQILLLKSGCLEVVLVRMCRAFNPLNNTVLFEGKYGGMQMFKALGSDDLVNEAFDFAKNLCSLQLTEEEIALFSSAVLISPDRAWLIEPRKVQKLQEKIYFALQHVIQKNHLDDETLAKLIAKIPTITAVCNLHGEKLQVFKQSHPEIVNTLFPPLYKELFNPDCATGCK
Chain of Nuclear receptor ROR-alpha (Homo sapiens) (P35398 whole entry): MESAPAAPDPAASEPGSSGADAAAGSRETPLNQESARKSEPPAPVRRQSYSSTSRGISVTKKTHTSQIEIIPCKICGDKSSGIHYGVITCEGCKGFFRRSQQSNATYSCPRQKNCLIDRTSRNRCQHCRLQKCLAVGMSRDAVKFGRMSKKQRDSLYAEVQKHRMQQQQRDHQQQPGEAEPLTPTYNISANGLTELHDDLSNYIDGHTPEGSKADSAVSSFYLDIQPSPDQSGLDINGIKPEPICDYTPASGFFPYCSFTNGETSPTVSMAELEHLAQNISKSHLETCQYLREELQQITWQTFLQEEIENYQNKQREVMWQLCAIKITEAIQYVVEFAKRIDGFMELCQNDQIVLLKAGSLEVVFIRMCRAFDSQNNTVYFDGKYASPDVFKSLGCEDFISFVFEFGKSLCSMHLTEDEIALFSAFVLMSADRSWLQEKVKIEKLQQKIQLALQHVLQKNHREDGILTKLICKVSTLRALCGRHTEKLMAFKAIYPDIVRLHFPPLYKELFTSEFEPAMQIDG

Cc1cc(CN2C(=O)CN(c3ccc(C(F)(F)F)cc3)C2=O)cc(C)c1OC(C)(C)C(=O)O
22300 ng·h/mL: AUC [10]
Non-Toxic: Activity (COS-7) | Activity (HepG2)
4250 ng·h/mL: AUC [9]
Active: Activity [12] | Activity [13] | Activity [14] | Activity [15] | Activity [16] | Activity [17] | Activity [18] | Activity [19] | Activity [20] | Activity [21] | Activity [22] | Activity [23] | Activity [24] | Activity [25] | Activity [26] | Activity [28] | Activity [29]
105%: bioavailability [11]
Dose-Dependent Effect: Activity [27]
inactive: Activity [1] | Activity [2] | Activity [3] | Activity [4] | Activity [5] | Activity [6] | Activity [7]
> 2 h: half-life at 1 µM [8]
